# Assay results reported in patent publication US20030124150A1, “Kit for reducing aching” (priority 2001, published 2003).
# Tests used:
# [1] = test system: subjects; experiment: Aching as side effect of multiple dosing of PDE5 inhibitors (background observations); conditions: for aching as a side effect of multiple dosing: in vivo
# Text: A problem associated with the multiple daily dosing of PDE5 inhibitors is that subjects experience, as a side effect, aching in certain parts of the body. Subjects describe this aching as predominantly a dull aching without muscle tenderness. Aching is experienced predominantly in the“postural muscles”, typically the calves, thighs, buttocks, lower back, shoulders and neck regions. These symptoms may be described as myalgia or back pain; for the purposes of this application, they will be referred to as“aching”.
# [2] = test system: subjects; conditions: reported by H Padma-Nathan et al and Eli Lilly/ICOS presentation; cited from earlier work
# [3] = test system: subjects; experiment: Study 1: double blind, placebo-controlled, multiple dose study of sildenafil, adverse events (myalgia, back pain); type: in vivo; conditions: for Back pain / Myalgia: oral capsules, subjects affected/subjects dosed
# Method: (§1) All adverse events observed or recorded during the studies were recorded by the investigator, including information about concomitant illnesses and therapeutic interventions. For all adverse events, the investigator pursued and obtained information adequate to determine the outcome of the adverse event. Physical examinations at screening and medical histories of all subjects were normal with no indication of any joint, muscle, or tendon weakness.
# Dosage took the form of oral capsules.
# [4] = test system: subjects; experiment: Study 2: Compound A multiple dosing, non-escalating (Example 3) vs escalating (Example 4), myalgia/back pain (aching); type: in vivo; conditions: for Myalgia/back pain, Mild/moderate / Myalgia/back pain, Severe: subjects affected/dosed
# Method: as §1
# Six subjects were given 20 mg of Compound A three times a day (tid) for 7 days. Dosage took the form of immediate release tablets.
# Nine subjects were given 2.5 mg of Compound A three times a day (tid) for 7 days, then 7.5 mg tid for 7 days, then 20 mg tid for a further 7 days. Dosage took the form of immediate release tablets.
# [5] = test system: subjects; experiment: Study 3: Compound A escalating dosing with 24-hour drug holiday (Examples 6 and 7), myalgia and back pain (aching); type: in vivo; conditions: for Back pain, Mild / Back pain, Moderate / Back pain, Severe / Myalgia, Mild / Myalgia, Moderate / Myalgia, Severe: 20 mg tid 7 days, 24-hour drug holiday, 20 mg tid 6 days, subjects affected/dosed
# Method: as §1
# Nine subjects were given 2.5 mg of Compound A three times a day (tid) for 7 days followed by 20 mg tid for a further 7 days. The subjects were given a 24-hour drug holiday, i.e. a day without taking the inhibitor, then 20 mg tid dosing was continued for another 6 days. Dosage took the form of immediate release tablets.
# Nine subjects were given 2.5 mg of Compound A three times a day (tid) for 4 days, then 7.5 mg tid for 3 days, then 20 mg tid for a further 7 days. The subjects were given a 24-hour drug holiday, i.e. a day without taking the inhibitor, then 20 mg tid dosing was continued for another 6 days. Dosage took the form of immediate release tablets.
# [6] = Example 3: 20 mg tid for 7 days, immediate release tablets
# [7] = Example 4: 2.5 mg tid 7 days, then 7.5 mg tid 7 days, then 20 mg tid 7 days
# [8] = Example 4 escalating dosing regime
# [9] = Example 6 escalating dosing regime
# [10] = Example 7: 2.5 mg tid 4 days, 7.5 mg tid 3 days
# [11] = Example 7 escalating dosing regime
structure (smiles),measurement,setting,value
"CCc1c2nc(-c3cc(S(=O)(=O)N4CCN(CC)CC4)cnc3OCCOC)[nH]c(=O)c2nn1Cc1ccccn1 [WO 99/54333, Example 4, 3-ethyl-5-[5-(4-ethylpiperazin-1-ylsulphonyl)-2-(2-methoxyethoxy)pyridin-3-yl]-2-(pyridin-2-yl)methyl-2,6-dihydro-7H-pyrazolo[4,3-d]-pyrimidin-7-one]",aching as a side effect of multiple dosing,[1],observed
"CN1CC(=O)N2[C@H](c3ccc4c(c3)OCO4)c3[nH]c4ccccc4c3C[C@@H]2C1=O [tadalafil, (6R, 12aR)-2,3,6,7,12,12a-hexahydro-2-methyl-6-(3,4-methylenedioxyphenyl)-pyrazino[2′,1′:6,1]pyrido[3,4-b]indole-1,4-dione]",backache and myalgia,[2],reported to cause backache and myalgia
"CCCc1nn(C)c2c(=O)[nH]c(-c3cc(S(=O)(=O)N4CCN(C)CC4)ccc3OCC)nc12 [sildenafil, 5-[2-ethoxy-5-(4-methyl-1-piperazinylsulphonyl)phenyl]-1-methyl-3-n-propyl-1,6-dihydro-7H-pyrazolo[4,3-d]pyrimidin-7-one]",Back pain,[3]; 25 mg tid,2/10
same,Myalgia,[3]; 25 mg tid,2/10
same,Back pain,[3]; 50 mg tid,2/9
same,Myalgia,[3]; 50 mg tid,5/9
same,reports of severe treatment-related adverse events which led to discontinuance of the treatment,[3]; 75 mg tid,three
same,Back pain,[3]; 75 mg tid,5/8
same,Myalgia,[3]; 75 mg tid,3/8
same,most common adverse events,"[3]; 25, 50 or 75 mg tid","back pain, headache and myalgia"
same,persistence of headache and myalgia that occurred after a few days of treatment,[3]; lower doses (25 mg tid and 50 mg tid),did not persist with further treatment
same,incidence of aching,[1]; 25 mg tid,60%
same,incidence of aching,[1]; 75 mg tid,100%
same,day by which aching disappears,"[1]; higher doses (for example, 75 mg tid)",sixth or seventh day
same,day on which aching generally commences,[1]; multiple dosing regime,second or third day
"CCCOc1ccc(S(=O)(=O)N2CCN(CC)CC2)cc1-c1nc2c(CC)n(Cc3ccccn3)nc2c(=O)[nH]1 [WO 98/49166, Example 4, 3-ethyl-5-[5-(4-ethylpiperazin-1-ylsulphonyl)-2-n-propoxyphenyl]-2-(pyridin-2-yl)methyl-2,6-dihydro-7H-pyrazolo[4,3-d]pyrimidin-7-one]",aching as a side effect of multiple dosing,[1],observed
"CCCc1nn(C)c2c(=O)[nH]c(-c3cc(C(=O)CN4CCOCC4)ccc3OCC)nc12 [Compound A, 5-(2-ethoxy-5-morpholinoacetylphenyl)-1-methyl-3-n-propyl-1,6-dihydro-7H-pyrazolo[4,3-d]pyrimidin-7-one]","Myalgia/back pain, Mild/moderate",[4]; [6],0/6
same,"Myalgia/back pain, Severe",[4]; [6],6/6
same,subjects withdrawn due to the severity of the aching,"[4]; Example 3: 20 mg tid, after only 4 days of treatment, six subjects",four
same,"Myalgia/back pain, Mild/moderate",[4]; [7],1/9
same,"Myalgia/back pain, Severe",[4]; [7],1/9
same,aching compared with non-escalating regime of Example 3,[4]; [8],significant reduction in aching
same,withdrawals,[4]; [8],no withdrawals
same,incidence of aching after the 24-hour drug-free period,"[5]; Example 6, 20 mg tid resumed",no apparent increase
same,"Back pain, Mild",[5]; Example 6: 2.5 mg tid 7 days,2/9
same,"Back pain, Moderate",[5]; Example 6: 2.5 mg tid 7 days,0/9
same,"Back pain, Severe",[5]; Example 6: 2.5 mg tid 7 days,0/9
same,"Myalgia, Mild",[5]; Example 6: 2.5 mg tid 7 days,2/9
same,"Myalgia, Moderate",[5]; Example 6: 2.5 mg tid 7 days,3/9
same,"Myalgia, Severe",[5]; Example 6: 2.5 mg tid 7 days,1/9
same,aching compared with non-escalating regime of Example 3,[5]; [9],significant reduction in aching
same,withdrawals,[5]; [9],no withdrawals
same,effectiveness of triple dosing in reducing aching,[5]; Example 7 (triple dosing),particularly effective in reducing aching
same,incidence of aching after the 24-hour drug-free period,"[5]; Example 7, 20 mg tid resumed",no apparent increase
same,"Back pain, Mild",[5]; [10],0/9
same,"Back pain, Moderate",[5]; [10],0/9
same,"Back pain, Severe",[5]; [10],0/9
same,"Myalgia, Mild",[5]; [10],4/9
same,"Myalgia, Moderate",[5]; [10],1/9
same,"Myalgia, Severe",[5]; [10],0/9
same,aching compared with non-escalating regime of Example 3,[5]; [11],significant reduction in aching
same,withdrawals,[5]; [11],no withdrawals
